Like-named read-outs stand apart in the source and are kept apart here.
Experiment: Single oral dose human plasma pharmacokinetics of D, DA and DOH after Cogni.Q
Format: in vivo
Details: for AUC(0-t) / Cmax / half-life / Tmax: human, plasma
From the text: Ten healthy male and 10 female subjects were recruited by public announcement in Amarillo, TX, from January 2013 to April 2013 (see Fig. 1 CONSORT diagram). The sample size for each gender was chosen without power calculation due to the lack of prior knowledge of PK parameter variance in humans. After receiving informed consent verbally and in writing, the health status of each candidate was confirmed by health questionnaire, plasma biochemistry (hepatic and renal functions), complete blood cell count (CBC), and a physical examination by a participating academic physician. Subjects with diabetes, or pregnant, perinatal and breastfeeding women were excluded. For the 48 hours preceding study visit until the final blood draw, all subjects were instructed to avoid taking any prescription or nonprescription drugs, vitamins, and herbal/dietary supplements. Each subject was compensated for participating in the study per TTUHSC IRB approved rate.
Eligible subjects arrived at our clinical facility at 0700 (7:00 am) on the test day after a fast beginning at 2200 (10:00 pm) the previous night. After a brief review of vital signs, the nurse placed an intravenous (IV) line with saline drip in one arm of each subject. A baseline pre-dose (hour 0) blood sample was drawn through the IV line; after that subjects swallowed four Cogni.Q vegicaps with 240 mL of water at hour 0 under direct supervision. Subjects stayed at the clinical facility in their room for the next 12 hours, returning at 24 and 48 hours. Blood was drawn at baseline (hour 0) and at 0.5, 1, 2, 3, 4, 6, 8, 12, 24 and 48 hours after dosing into Vacutainer Blood Collection Tube (Becton-Dickinson, Franklin Lakes, NJ. Product Number: 367874, Sodium heparin was used as anti-coagulant). Water was allowed as desired except for within the first hour after Cogni.Q consumption. All subjects received standardized meals at post-dose hours 4.5 and 9.5 but no food was allowed for at least the first 4 hours post-dose.
Plasma was prepared by centrifuging the heparinized blood at 1000 g for 15 minutes at room temperature. Urine samples (40mL) were collected within time spans of 0–4, 4–8, 8–12 and 12–24 hours (total volume of urine was recorded). All plasma and urine samples were put on dry ice immediately and then stored at -80°C freezer until analysis.
Plasma samples were extracted with a validated solid supported liquid extraction (SLE) method facilitated with a positive pressure manifold (Biotage, Charlotte, NC). Briefly, 100 μL of plasma sample was spiked with 5 μL of 10 ng/μL prednisolone (IS), diluted with 200 μL of LC-MS grade water, mixed and loaded onto ISOLUTE SLE+ 400 μL Array Well cartridges (Biotage, Charlotte, NC). A pulse of minimum positive pressure was applied to facilitate the samples absorption into the cartridges. After the samples were allowed to absorb for 5 min, the compounds were eluted with 2×500 μL tert-butyl methyl ether. The eluent was dried in a Speedvac and the resulting residue was reconstituted in 50 μL of methanol for UHPLC-MS/MS analysis.
Eight-point calibration curves were constructed for D, DA and DOH, at concentrations of 0.1, 0.5, 1, 5, 10, 20, 50 and 100 μg/L for D and DA, and at concentrations of 1, 5, 10, 50, 100, 200, 500 and 1000 μg/L for DOH, respectively. The linear range was 0.1–100 μg/L (0.3–300 nmol/L), 0.1–100 μg/L (0.3–300 nmol/L) and 1–1000 μg/L (4–4000 nmol/L) for D, DA and DOH, respectively. The inter- and intra-assay CV were lower than 6.5% and the accuracy was between 90–105%. Calibration curve was run for each batch of samples analyzed. The mean calibration curve correlation coefficient (r) for D, DA and DOH was 0.999, 0.999 and 0.998, respectively (data from 7–10 calibration curves). In addition, 70% of the plasma samples were extracted and analyzed twice, the data from two replicate analyses were nearly identical and combined for final data analyses and presentation. […]

**Q.** What does the source list for CC(C)=CC(=O)O[C@H]1Cc2cc3ccc(=O)oc3cc2OC1(C)C [D, decursin]?
**A.** AUC(0-t) (oral, 4 Cogni.Q vegicaps, subject S10 (185 lb), read-out: AUC0-48h): 46.6 nmol·h/L; Cmax (oral, 4 Cogni.Q vegicaps, subject S10 (185 lb), read-out: Cmax): 5.7 nM; half-life (oral, 4 Cogni.Q vegicaps, subject S10 (185 lb), read-out: Terminal t1/2, h (converted)): 804 min; Tmax (oral, 4 Cogni.Q vegicaps, subject S10 (185 lb), read-out: Tmax): 0.5 h; AUC(0-t) (oral, 4 Cogni.Q vegicaps, subject S11 (178 lb), read-out: AUC0-48h): 14.7 nmol·h/L; Cmax (oral, 4 Cogni.Q vegicaps, subject S11 (178 lb), read-out: Cmax): 2.5 nM; half-life (oral, 4 Cogni.Q vegicaps, subject S11 (178 lb), read-out: Terminal t1/2, h (converted)): 1210 min; Tmax (oral, 4 Cogni.Q vegicaps, subject S11 (178 lb), read-out: Tmax): 1 h; AUC(0-t) (oral, 4 Cogni.Q vegicaps, subject S12 (169 lb), read-out: AUC0-48h): 24.8 nmol·h/L; Cmax (oral, 4 Cogni.Q vegicaps, subject S12 (169 lb), read-out: Cmax): 1.3 nM; half-life (oral, 4 Cogni.Q vegicaps, subject S12 (169 lb), read-out: Terminal t1/2, h (converted)): 942 min; Tmax (oral, 4 Cogni.Q vegicaps, subject S12 (169 lb), read-out: Tmax): 2 h; AUC(0-t) (oral, 4 Cogni.Q vegicaps, subject S13 (192 lb), read-out: AUC0-48h): 13.5 nmol·h/L; Cmax (oral, 4 Cogni.Q vegicaps, subject S13 (192 lb), read-out: Cmax): 1.3 nM; half-life (oral, 4 Cogni.Q vegicaps, subject S13 (192 lb), read-out: Terminal t1/2, h (converted)): 1550 min; Tmax (oral, 4 Cogni.Q vegicaps, subject S13 (192 lb), read-out: Tmax): 0.5 h; AUC(0-t) (oral, 4 Cogni.Q vegicaps, subject S14 (200 lb), read-out: AUC0-48h): 21.5 nmol·h/L; Cmax (oral, 4 Cogni.Q vegicaps, subject S14 (200 lb), read-out: Cmax): 8.6 nM; half-life (oral, 4 Cogni.Q vegicaps, subject S14 (200 lb), read-out: Terminal t1/2, h (converted)): 270 min; Tmax (oral, 4 Cogni.Q vegicaps, subject S14 (200 lb), read-out: Tmax): 1 h; AUC(0-t) (oral, 4 Cogni.Q vegicaps, subject S15 (177 lb), read-out: AUC0-48h): 23.8 nmol·h/L; Cmax (oral, 4 Cogni.Q vegicaps, subject S15 (177 lb), read-out: Cmax): 16.8 nM; half-life (oral, 4 Cogni.Q vegicaps, subject S15 (177 lb), read-out: Terminal t1/2, h (converted)): 1590 min; Tmax (oral, 4 Cogni.Q vegicaps, subject S15 (177 lb), read-out: Tmax): 1 h; Tmax (oral, 4 Cogni.Q vegicaps, subject S16 (175 lb), read-out: Tmax): 3 h; AUC(0-t) (oral, 4 Cogni.Q vegicaps, subject S17 (147 lb), read-out: AUC0-48h): 53.9 nmol·h/L; Cmax (oral, 4 Cogni.Q vegicaps, subject S17 (147 lb), read-out: Cmax): 9.8 nM; half-life (oral, 4 Cogni.Q vegicaps, subject S17 (147 lb), read-out: Terminal t1/2, h (converted)): 1360 min; Tmax (oral, 4 Cogni.Q vegicaps, subject S17 (147 lb), read-out: Tmax): 2 h; half-life (oral, 4 Cogni.Q vegicaps, subject S18 (180 lb), outlier, excluded from means, read-out: Terminal t1/2, h (converted)): 8310 min; AUC(0-t) (oral, 4 Cogni.Q vegicaps, subject S18 (180 lb), read-out: AUC0-48h): 25.8 nmol·h/L; Cmax (oral, 4 Cogni.Q vegicaps, subject S18 (180 lb), read-out: Cmax): 1.7 nM; Tmax (oral, 4 Cogni.Q vegicaps, subject S18 (180 lb), read-out: Tmax): 4 h; AUC(0-t) (oral, 4 Cogni.Q vegicaps, subject S19 (130 lb), read-out: AUC0-48h): 35.7 nmol·h/L; Cmax (oral, 4 Cogni.Q vegicaps, subject S19 (130 lb), read-out: Cmax): 1.7 nM; half-life (oral, 4 Cogni.Q vegicaps, subject S19 (130 lb), read-out: Terminal t1/2, h (converted)): 510 min; Tmax (oral, 4 Cogni.Q vegicaps, subject S19 (130 lb), read-out: Tmax): 3 h; half-life (oral, subject S16 (175 lb), outlier, excluded from means, read-out: Terminal t1/2, h (converted)): 564 min; AUC(0-t) (oral, subject S16 (175 lb), read-out: AUC0-48h): 22.2 nmol·h/L; Cmax (oral, subject S16 (175 lb), read-out: Cmax): 2.8 nM; AUC(0-t) (oral, subject S20 (200 lb), read-out: AUC0-48h): 19.1 nmol·h/L; Cmax (oral, subject S20 (200 lb), read-out: Cmax): 1.3 nM; half-life (oral, subject S20 (200 lb), read-out: Terminal t1/2, h (converted)): 1100 min; Tmax (oral, subject S20 (200 lb), read-out: Tmax): 2 h; conversion of D/DA to DOH (humans, from plasma AUC0–48h values): > 98%; AUC(0-t) (male, oral, 4 Cogni.Q vegicaps, Men n=10 (S1 Table), read-out: AUC0-48h, Mean): 28.5 nmol·h/L; Cmax (male, oral, 4 Cogni.Q vegicaps, Men n=10 (S1 Table), read-out: Cmax, nM, Mean): 5.22 nM; Tmax (male, oral, 4 Cogni.Q vegicaps, Men n=10 (S1 Table), read-out: Tmax, h, Mean): 1.7 h; half-life (male, oral, Men, outliers excluded (S1 Table), read-out: Terminal t1/2, h, Mean (converted)): 1060 min; AUC(0-t) (male, po, Men N = 10, single oral dose Cogni.Q, read-out: AUC0–48h, h.nmol/L Mean (SD)): 28.5 nmol·h/L; Cmax (male, po, Men N = 10, single oral dose Cogni.Q, read-out: Cmax, nmol/L, Mean (SD)): 5.2 nM; Tmax (male, po, Men N = 10, single oral dose Cogni.Q, read-out: Tmax, h, Mean (SD)): 1.7 h; half-life (male, po, Men, outlier subjects excluded, single oral dose Cogni.Q, read-out: T1/2, h, terminal Mean (SD) (converted)): 1060 min
